Measured values reported in patent US10385103B2, “Cell-permeable (ICP)-SOCS3 recombinant protein and uses thereof” (CELLIVERY THERAPEUTICS, INC., priority 2014, dated 2019).

Tested on: RAW 264.7 cells
Assay: Quantitative cell-permeability of FITC-labeled aMTD- or rPeptide-fused CRA recombinant proteins (flow cytometry)
Type: cell-based
Conditions: for Relative Ratio to aMTD AVE: cell-permeability of rPeptide-fused CRA recombinant protein relative to average of 240 aMTDs
Source text: The aMTDs and rPeptides were fluorescently labeled and compared based on the critical factors for cell-permeability by using flow cytometry and confocal laser scanning microscopy (FIGS. 5 to 8). The cellular uptake of the peptide-fused non-functional cargo recombinant proteins could quantitatively be evaluated in flow cytometry, while confocal laser scanning microscopy allows intracellular uptake to be assessed visually. The analysis included recombinant proteins fused to a negative control [rP38] that has opposite characteristics (hydrophilic and aromatic sequence: […] NO: 952)) to the aMTDs (hydrophobic and aliphatic sequences). Relative cell-permeability (relative fold) of aMTDs to the negative control was also analyzed (Table 23 and FIG. 9). […] RAW 264.7 cells were treated with 10 μM FITC-labeled recombinant proteins for 1 hour at 37° C., washed three times with cold PBS, treated with 0.25% tripsin/EDTA (Sigma-Aldrich, St. Louis, Mo.) for 20 minutes at 37° C. to remove cell-surface bound proteins. Cell-permeability of these recombinant proteins were analyzed by flow cytometry (Guava, Millipore, Darmstadt, Germany) using the FlowJo cytometric analysis software (FIGS. 5 to 6).

[1] = cell-permeability of aMTD-fused CRA recombinant protein relative to negative control (A: rP38)
[2] = cell-permeability of aMTD-fused CRA recombinant protein relative to reference CPP (B: MTM12)
[3] = cell-permeability of aMTD-fused CRA recombinant protein relative to reference CPP (C: MTD85)
[4] = relative cell-permeability of aMTD vs reference A (not defined)
[5] = relative cell-permeability of aMTD vs reference CPP B: MTM12
[6] = relative cell-permeability of aMTD vs reference CPP C: MTD85
[7] = cell-permeability relative to negative control rP38 (A type), aMTD-fused CRA recombinant protein, 10 μM FITC-labeled, 1 hour, 37° C., RAW 264.7 cells
[8] = cell-permeability relative to reference CPP MTD85 (C type), aMTD-fused CRA recombinant protein, 10 μM FITC-labeled, 1 hour, 37° C., RAW 264.7 cells
[9] = cell-permeability relative to reference CPP MTM12 (B type), aMTD-fused CRA recombinant protein, 10 μM FITC-labeled, 1 hour, 37° C., RAW 264.7 cells
[10] = 10 μM FITC-labeled, 1 hour, 37° C., RAW 264.7 cells

| Substance | Relative Ratio (Fold) A [1] | Relative Ratio (Fold) B [2] | Relative Ratio (Fold) C [3] | also measured |
| --- | --- | --- | --- | --- |
| 895 (AIIIVVPAIAAP; Amino acid Sequence of aMTD895) [compound 895] | 60.8 Fold | 40.7 Fold | 20.6 Fold |  |
| 324 (IVAVALPAALVP; Amino acid Sequence of aMTD324) [compound 324] | 10.3 Fold | 6.9 Fold | 3.5 Fold | Relative Ratio (Fold) A [4]: 10.3 Fold; Relative Ratio (Fold) B [5]: 6.9 Fold; Relative Ratio (Fold) C [6]: 3.5 Fold |
| 364 (LVAAVAPALIVP; Amino acid Sequence of aMTD364) [compound 364] |  |  |  | Relative Ratio (Fold) A [7]: 6.5 Fold; Relative Ratio (Fold) C [8]: 2.2 Fold; Relative Ratio (Fold) B [9]: 4.3 Fold |
| 524 (AVALIVVPALAP; Amino acid Sequence of aMTD524) [compound 524] | 18.3 Fold | 12.2 Fold | 6.2 Fold |  |
| 684 (AAIVLALPAVLP; Amino acid Sequence of aMTD684) [compound 684] |  |  |  | Relative Ratio (Fold) A [7]: 3.5 Fold; Relative Ratio (Fold) C [8]: 1.2 Fold; Relative Ratio (Fold) B [9]: 2.1 Fold |
| 726 (LAVAIIAPAVAP; Amino acid Sequence of aMTD726) [compound 726] | 16.5 Fold | 11.0 Fold | 5.6 Fold |  |
| 38 (YYNQSTCGGQCY; Amino acid Sequence of rPeptide ID 38) [compound 38] |  |  |  | Relative Ratio to aMTD AVE [10]: 0.05 |
| 464 (AVVILVPLAAAP; Amino acid Sequence of aMTD464) [compound 464] | 22.3 Fold | 14.9 Fold | 7.5 Fold |  |
| 223 (AILAVPIAVVAP; Amino acid Sequence of aMTD223) [compound 223] | 33.0 Fold | 22.1 Fold | 11.2 Fold |  |
| 281 (ALIVLPAAVAVP; Amino acid Sequence of aMTD281) [compound 281] | 13.3 Fold | 8.9 Fold | 4.5 Fold | Relative Ratio (Fold) A [7]: 13.3 Fold; Relative Ratio (Fold) C [8]: 4.5 Fold; Relative Ratio (Fold) B [9]: 8.9 Fold |
| 541 (LLALIIAPAAAP; Amino acid Sequence of aMTD541) [compound 541] | 14.8 Fold | 9.9 Fold | 5.0 Fold |  |
| 167 (VAIAIPAALAIP; Amino acid Sequence of rPeptide ID 167) [compound 167] |  |  |  | Relative Ratio to aMTD AVE [10]: 0.50 |
| 243 (AAVLLPVALAAP; Amino acid Sequence of aMTD243) [compound 243] |  |  |  | Relative Ratio (Fold) A [7]: 5.9 Fold; Relative Ratio (Fold) C [8]: 2.0 Fold; Relative Ratio (Fold) B [9]: 3.9 Fold |
| 899 (AVVIALPAVVAP; Amino acid Sequence of aMTD899) [compound 899] | 164.2 Fold | 109.9 Fold | 55.5 Fold | Relative Ratio (Fold) A [4]: 164.2 Fold; Relative Ratio (Fold) B [5]: 109.9 Fold; Relative Ratio (Fold) C [6]: 55.5 Fold |
| 825 (IVAVIVAPAVAP; Amino acid Sequence of aMTD825) [compound 825] | 69.7 Fold | 46.6 Fold | 23.5 Fold |  |
| 664 (ILIAIAIPAAAP; Amino acid Sequence of aMTD664) [compound 664] |  |  |  | Relative Ratio (Fold) A [7]: 5.7 Fold; Relative Ratio (Fold) C [8]: 1.9 Fold; Relative Ratio (Fold) B [9]: 3.8 Fold |
| 844 (VVALLAPLIAAP; Amino acid Sequence of aMTD844) [compound 844] | 11.2 Fold | 7.5 Fold | 3.8 Fold |  |
| 305 (IALAAPILLAAP; Amino acid Sequence of aMTD305) [compound 305] |  |  |  | Relative Ratio (Fold) A [7]: 4.8 Fold; Relative Ratio (Fold) C [8]: 1.6 Fold; Relative Ratio (Fold) B [9]: 3.2 Fold |
| 426 (AAALAIPLAIIP; Amino acid Sequence of rPeptide ID 426) [compound 426] |  |  |  | Relative Ratio to aMTD AVE [10]: 0.40 |

| Substance | Relative Ratio (Fold) A [1] | Relative Ratio (Fold) B [2] | Relative Ratio (Fold) C [3] | also measured |
| --- | --- | --- | --- | --- |
| 507 (VAIALAPVVVAP; Amino acid Sequence of aMTD907) [compound 507] | 8.1 Fold | 5.4 Fold | 2.8 Fold |  |
| 891 (ILAVAAIPAALP; Amino acid Sequence of aMTD891) [compound 891] | 44.7 Fold | 29.9 Fold | 15.1 Fold |  |
| 545 (VVLVLAAPAAVP; Amino acid Sequence of aMTD545) [compound 545] | 34.6 Fold | 23.1 Fold | 11.7 Fold |  |
| 384 (VIVAIAPALLAP; Amino acid Sequence of aMTD384) [compound 384] | 14.0 Fold | 9.4 Fold | 4.7 Fold |  |
| 897 (AVIVPVAIIAAP; Amino acid Sequence of aMTD897) [compound 897] | 11.2 Fold | 7.5 Fold | 3.8 Fold | Relative Ratio (Fold) A [7]: 11.2 Fold; Relative Ratio (Fold) C [8]: 3.8 Fold; Relative Ratio (Fold) B [9]: 7.5 Fold |
| 830 (IALVAAPVALVP; Amino acid Sequence of aMTD830) [compound 830] |  |  |  | Relative Ratio (Fold) A [7]: 5.3 Fold; Relative Ratio (Fold) C [8]: 1.8 Fold; Relative Ratio (Fold) B [9]: 3.5 Fold |
| 461 (IAAVIVPAVALP; Amino acid Sequence of aMTD461) [compound 461] | 19.0 Fold | 12.7 Fold | 6.4 Fold |  |
| 262 (ALIAVPAIIVAP; Amino acid Sequence of aMTD262) [compound 262] |  |  |  | Relative Ratio (Fold) A [7]: 5.5 Fold; Relative Ratio (Fold) C [8]: 1.9 Fold; Relative Ratio (Fold) B [9]: 3.7 Fold |
| 21 (AVALLPALLAVP; Amino acid Sequence of aMTD21) [compound 21] | 18.9 Fold | 12.6 Fold | 6.4 Fold |  |
| 245 (AAALAPVLALVP; Amino acid Sequence of aMTD245) [compound 245] | 7.5 Fold | 5.0 Fold | 2.5 Fold |  |
| 887 (VLAVAPAVAVLP; Amino acid Sequence of aMTD887) [compound 887] | 7.7 Fold | 5.1 Fold | 2.6 Fold |  |
| 329 (LPVLVPVVPVVP; Amino acid Sequence of rPeptide ID 329) [compound 329] |  |  |  | Relative Ratio to aMTD AVE [10]: 0.23 |
| 29 (VLPPLPVLPVLP; Amino acid Sequence of rPeptide ID 29) [compound 29] |  |  |  | Relative Ratio to aMTD AVE [10]: 0.07; Relative Ratio (Fold) A (relative cell-permeability of rPeptide vs reference A (not defined)): 1.4 Fold; Relative Ratio (Fold) B (relative cell-permeability of rPeptide vs reference CPP B: MTM12): 0.9 Fold; Relative Ratio (Fold) C (relative cell-permeability of rPeptide vs reference CPP C: MTD85): 0.5 Fold |
| 902 (ALVAPLLAVAVP; Amino acid Sequence of aMTD902) [compound 902] | 7.6 Fold | 5.1 Fold | 2.6 Fold |  |
| 746 (VAIIVVAPALAP; Amino acid Sequence of aMTD746) [compound 746] | 7.6 Fold | 4.4 Fold | 2.6 Fold |  |
| 182 (ALIAPVVALVAP; Amino acid Sequence of aMTD182) [compound 182] |  |  |  | Relative Ratio (Fold) A [7]: 4.0 Fold; Relative Ratio (Fold) C [8]: 1.4 Fold; Relative Ratio (Fold) B [9]: 2.7 Fold |
| 241 (AAAVVPVLLVAP; Amino acid Sequence of aMTD241) [compound 241] | 16.6 Fold | 11.0 Fold | 5.6 Fold | Relative Ratio to aMTD AVE [10]: 0.33 |
| 421 (AAILAAPLIAVP; Amino acid Sequence of aMTD421) [compound 421] |  |  |  | Relative Ratio (Fold) A [7]: 6.7 Fold; Relative Ratio (Fold) C [8]: 2.3 Fold; Relative Ratio (Fold) B [9]: 4.5 Fold |
| 39 (CYNTSPCTGCCY; Amino acid Sequence of rPeptide ID 39) [compound 39] |  |  |  | Relative Ratio to aMTD AVE [10]: 0.29 |
